Assays:
Format in all cases: in vivo, Human
External panelists [1] = test: Line scale sensory test, Example 6, fructose as sweetener, pH 7.1; design: Average Sweetness / Average Bitterness: scale not given here
Description: Sensory evaluations were performed using fructose as the sweetener and 3-(4-amino-2,2-dioxide-1H-benzo[c][1,2,6]thiadiazin-5-yloxy)-2′,2′-dimethyl-N-propylpropanamide as the sweetness enhancer, using methods similar to those using sucrose, above. […]

Panelists [2] = test: Paired comparison taste test, Example 7, sucrose or fructose solutions; settings: vs 6% Fructose + 25 μM compound, N = 25
Description: Several types of sensory tests were used to determine the efficacy of 3-(4-amino-2,2-dioxide-1H-benzo[c][1,2,6]thiadiazin-5-yloxy)-2′,2′-dimethyl-N-propylpropanamide 3-(4-amino-2,2-dioxide-1H-benzo[c][1,2,6]thiadiazin-5-yloxy)-2′,2′-dimethyl-N-propylpropanamide in enhancing the sweetness of sucrose. Two types of tests were conducted: • 1) Sensory scaling tests were performed using a 15-point percent sucrose equivalence scale for sweetness in order to evaluate sweetness enhancement 3-(4-amino-2,2-dioxide-1H-benzo[c][1,2,6]thiadiazin-5-yloxy)-2′,2′-dimethyl-N-propylpropanamide 3-(4-amino-2,2-dioxide-1H-benzo[c][1,2,6]thiadiazin-5-yloxy)-2′,2′-dimethyl-N-propylpropanamide in sucrose or in fructose. • 2) Paired comparison tests (2-alternative forced choice difference tests) were used to determine sweetness equivalence for solutions of sucrose vs. 3-(4-amino-2,2-dioxide-1H-benzo[c][1,2,6]thiadiazin-5-yloxy)-2′,2′-dimethyl-N-propylpropanamide 3-(4-amino-2,2-dioxide-1H-benzo[c][1,2,6]thiadiazin-5-yloxy)-2′,2′-dimethyl-N-propylpropanamide or buffer vs. 3-(4-amino-2,2-dioxide-1H-benzo[c][1,2,6]thiadiazin-5-yloxy)-2′,2′-dimethyl-N-propylpropanamide 3-(4-amino-2,2-dioxide-1H-benzo[c][1,2,6]thiadiazin-5-yloxy)-2′,2′-dimethyl-N-propylpropanamide. Stimuli:
Panelists evaluated two solutions in a paired comparison taste test procedure. They were instructed to select the sweeter of the two samples. They were also asked to comment on how difficult it was to tell the difference in sweetness between both samples and if any off tastes were perceived.
Panelists evaluated two solutions in a paired comparison taste test procedure and were instructed to select the sweeter of the two samples.

Panelists [3] = test: Paired comparison taste test, flavored water
Description: Two sweetened water solutions were prepared and compared: Flavored Water with 9% Sucrose vs. Flavored Water with 6% Sucrose+2.3 ppm (6.49 μM) of 5-(neopentyloxy)-1H-benzo[c][1,2,6]thiadiazin-4-amino-2,2-dioxide.
Mixing procedures: Dissolve acid into the water using a Lightnin® blender, mix for 5 minutes. Add sugar and continue to mix until dissolved. Add flavors last. Dissolve Compound A into a 0.50% propylene glycol mixture, add last and mix for another 5 minutes. Procedure:
(§1) Panelists evaluated two sweetened water solutions in a paired comparison taste test procedure and were instructed to select the sweeter of the two samples. They perform a total of three paired comparison tests each containing the following samples: Flavored Water with 9% Sucrose vs. Flavored Water with 6% Sucrose+2.3 ppm (6.49 μM) 5-(neopentyloxy)-1H-benzo[c][1,2,6]thiadiazin-4-amino-2,2-dioxide.
Two sweetened water solutions were prepared and compared: Flavored Water with 9% Sucrose vs. Flavored Water with 6% Sucrose+2.44 ppm (6.49 μM) of 3-(4-amino-2,2-dioxide-1H-benzo[c][1,2,6]thiadiazin-5-yloxy)-2′,2′-dimethyl-N-propylpropanamide.
as §1, with “Sucrose+2.44” for “Sucrose+2.3”, “3-(4-amino-2,2-dioxide-1H-benzo[c][1,2,6]thiadiazin-5-yloxy)-2′,2′-dimethyl-N-propylpropanamide.” for “5-(neopentyloxy)-1H-benzo[c][1,2,6]thiadiazin-4-amino-2,2-dioxide.”

External panelists [4] = test: Line scale (15-point sucrose equivalence) sensory test, Example 3A/3C, sucrose or LSB, pH 7.1; design: key to Average Sweetness / Average Bitterness: 15-point scale: 0 = 0% sucrose to 15 = 15% sucrose; references = 5
Description: Several types of sensory tests were used to determine the efficacy of 5-(neopentyloxy)-1H-benzo[c][1,2,6]thiadiazin-4-amino-2,2-dioxide in enhancing sweetness of sucrose. Two types of tests were conducted: • 1) Sensory scaling tests were performed using a 15-point percent sucrose equivalence scale for sweetness in order to evaluate sweetness enhancement 5-(neopentyloxy)-1H-benzo[c][1,2,6]thiadiazin-4-amino-2,2-dioxide in sucrose, or in fructose. • 2) Paired comparison tests (2-alternative forced choice difference tests) were used to determine sweetness equivalence for solutions of sucrose vs. 5-(neopentyloxy)-1H-benzo[c][1,2,6]thiadiazin-4-amino-2,2-dioxide or buffer vs. 5-(neopentyloxy)-1H-benzo[c][1,2,6]thiadiazin-4-amino-2,2-dioxide. Stimuli:
Tests were performed with sucrose or fructose. Sweetener was evaluated with and/or without 5-(neopentyloxy)-1H-benzo[c][1,2,6]thiadiazin-4-amino-2,2-dioxide at the appropriate concentration(s).
5-(Neopentyloxy)-1H-benzo[c][1,2,6]thiadiazin-4-amino-2,2-dioxide was prepared as a concentrated stock solution in ethanol to ensure dissolution of the compound. Therefore, all taste solutions contained 0.1% ethanol final concentration. Samples without compound also contained 0.1% ethanol. Low sodium phosphate buffer consists of 0.3 mM KCl, 0.5 mM Na2HPO4, and 0.175 mM KH2PO4.
In scaling test situations, the samples were rated on a 15-point scale for sweetness, ranging from 0=0% sucrose to 15=15% sucrose. To evaluate attributes other than sweetness, references are used for training and are prepared according to the table below. Note that each reference was given a score of 5 on the 15-point scale.
External panelists were used for the tests. The exact number of panelists is reported with test results. Subjects were instructed not to eat or drink anything (except water) for at least 1 hour prior to the test.
Panelists rinsed their mouths with water prior to starting any test. Samples were presented to panelists in a randomized, counterbalanced order. Panelists rinsed with water and had up to a 1 minute delay to clear the mouth of any tastes after each evaluation. Two replicates of each test were performed, unless otherwise noted.

[5] = 6% Sucrose + 25 μM compound, pH 7.1, n = 32

O=C(CO)[C@@H](O)[C@H](O)[C@H](O)CO [Fructose, fructose]
Average Sweetness (External panelists [1]; 2% Fructose, Table 29, n = 30): 2.2 | Average Bitterness (External panelists [1]; 2% Fructose, Table 30, n = 30): 0.4 | Average Sweetness (External panelists [1]; 4% Fructose, Table 29, n = 30): 4.5 | Average Bitterness (External panelists [1]; 4% Fructose, Table 30, n = 30): 0.5 | Average Sweetness (External panelists [1]; 6% Fructose, Table 29, n = 30): 5.9 | Average Bitterness (External panelists [1]; 6% Fructose, Table 30, n = 30): 0.4 | Average Sweetness (External panelists [1]; 6% Fructose, Table 31, n = 14): 7.1 | Average Bitterness (External panelists [1]; 6% Fructose, Table 32, n = 14): 0.7 | Average Sweetness (External panelists [1]; 6% Fructose, Table 33, n = 26): 6.9 | Average Bitterness (External panelists [1]; 6% Fructose, Table 34, n = 26): 0.2 | Average Sweetness (External panelists [1]; 8% Fructose, Table 31, n = 14): 8.3 | Average Bitterness (External panelists [1]; 8% Fructose, Table 32, n = 14): 0.3 | Average Sweetness (External panelists [1]; 8% Fructose, Table 33, n = 26): 8.6 | Average Bitterness (External panelists [1]; 8% Fructose, Table 34, n = 26): 0.3 | Average Sweetness (External panelists [1]; 9% Fructose, Table 31, n = 14): 9.4 | Average Bitterness (External panelists [1]; 9% Fructose, Table 32, n = 14): 0.3 | Average Sweetness (External panelists [1]; 9% Fructose, Table 33, n = 26): 9.3 | Average Bitterness (External panelists [1]; 9% Fructose, Table 34, n = 26): 0.1 | Average Sweetness (External panelists [1]; 10% Fructose, Table 31, n = 14): 11.1 | Average Bitterness (External panelists [1]; 10% Fructose, Table 32, n = 14): 0.2 | Average Sweetness (External panelists [1]; 10% Fructose, Table 33, n = 26): 9.5 | Average Bitterness (External panelists [1]; 10% Fructose, Table 34, n = 26): 0.1 | Sample selected as sweeter by panelists, Test 1 (Panelists [2]; 6% Fructose chosen): 5 | Sample selected as more sweet by panelists, Test 1 (Panelists [2]; 7% Fructose chosen): 13

CC(C)(C)COc1cccc2c1C(N)=NS(=O)(=O)N2 [5-(neopentyloxy)-1H-benzo[c][1,2,6]thiadiazin-4-amino-2,2-dioxide]
Sample selected as sweeter by panelists, Total (Panelists [3]; Flavored Water with 6% Sucrose + 2.3 ppm (6.49 μM) compound chosen, vs 9% Sucrose, n = 45): 23 | Sweetness comparison (conclusion) (Panelists [3]; Flavored Water with 6% Sucrose + 2.3 ppm (6.49 μM) compound vs 9% Sucrose, p>0.10): not significantly different in sweetness | off tastes (External panelists [4]; 35.3 μM (10 ppm) compound in LSB or 6% sucrose): no significant off tastes | Average Bitterness (External panelists [4]; [5]): 0.3 | Average Sweetness (External panelists [4]; [5]): 8.7 | Average Bitterness (External panelists [4]; 6% Sucrose + 35.3 μM (10 ppm) compound, n = 14): 0.6 | Sweetness vs sucrose solutions (conclusion) (External panelists [4]; 6% Sucrose + 35.3 μM (10 ppm) compound, p>0.10): not significantly different in sweetness from 8%, 9%, 10% sucrose | Average Sweetness (External panelists [4]; 6% Sucrose + 35.3 μM (10 ppm) compound, pH 7.1, n = 14): 9.3 | Sweetness vs sucrose solutions (conclusion) (External panelists [4]; 6% sucrose + 25 μM compound): not significantly different in sweetness properties compared to 9% and 10% sucrose solutions | off tastes (External panelists [4]; 6% sucrose + 25 μM compound): No significant off tastes | Average Bitterness (External panelists [4]; LSB + 35.3 μM (10 ppm) compound, no sucrose, n = 14): 0.3 | Average Sweetness (External panelists [4]; LSB + 35.3 μM (10 ppm) compound, no sucrose, pH 7.1, n = 14): 0.2 | Sweetness vs sucrose solutions (conclusion) (External panelists [4]; LSB + 35.3 μM (10 ppm) compound, p>0.10): not significantly different in sweetness than 0% sucrose

— patent US8609173B2, “Compositions comprising sweetness enhancers and methods of making them” (Senomyx Inc., priority 2008, dated 2013)
